The text below walks through data of US20210130312A1, “INHIBITORS OF EYA3-PROTEIN TYROSINE PHOSPHATASE IN DNA DAMAGE REPAIR SIGNALING OF PULMONARY ARTERIAL HYPERTENSION” (CHILDREN'S HOSPITAL MEDICAL CENTER, priority 2018, published 2021).

For experiment [1], the system named is γ-H2AX and 53BP1 foci in PASMC. Kind of experiment: γ-H2AX and 53BP1 staining (DDR) in lungs from rats subject to the SuHx protocol. Conditions: lungs of SuHx rats treated with EYA-PTP inhibitor. The experiment is classed as in vivo, rat. From the text:
γ-H2AX foci report on the existence of DSBs, and the assembly of functional DDR complexes is characterized by the presence of 53BP1 foci. Rats subject to the SuHx protocol show increased γ-H2AX and 53BP1 staining in both PAEC and PASMC, likely as a result of oxidative stress. Rats treated with EYA-PTP inhibitor BZ had reduced γ-H2AX staining, as well as reduced 53BP1 foci formation in PASMC.

In experiment [2] the test system is Sugen-Hypoxia (SuHx) rat model. Briefly: Sugen-Hypoxia (SuHx) rat model of PAH: RVSP by right heart catheterization, Fulton's index, PV remodeling. Format: in vivo. The method, then:
Sugen-Hypoxia (SuHx) rat model was used where a single administration of the VEGF inhibitor SU-5416 is followed by 3 weeks of hypoxia (10% O2) and PAH develops between 3-5 weeks after rats (adult Sprague-Daley males) are returned to room air. To test the effect of EYA-PTP inhibition on the development of PAH, benzarone (BZ) was administered every 3 days for 5 weeks after return to room air. The rats were maintained for a further 3 weeks in room air and then right ventricular systolic pressure (RVSP) measured by right heart catheterization. The increase in RVSP in BZ-treated rats was 32% less in BZ-treated rats than in vehicle-treated rats. Fulton's index (right ventricle/left ventricle plus septum weight) was also lower (by 28% relative to vehicle-treated controls) in BZ-treated animals indicating reduced RV hypertrophy.

Setting [3] is: rat SuHx model of PH, statement in words.

`CCc1oc2ccccc2c1C(=O)c1ccc(O)cc1` [BZ, benzarone]: in experiment [1], the “53BP1 foci formation in PASMC” value was “reduced” and the γ-H2AX staining entry is recorded as “reduced”. Further, in experiment [2] (SuHx rats, administered every 3 days for 5 weeks after return to room air, measured after a further 3 weeks in room air), the “increase in RVSP, less than in vehicle-treated rats” value turned out to be 32%. For the same compound, the “Fulton's index (right ventricle/left ventricle plus septum weight), lower relative to vehicle-treated controls” value in experiment [2] (SuHx rats, same regimen, indicates reduced RV hypertrophy) is listed as 28%. For the same compound, in experiment [2] (setting [3]), the PV remodeling entry is given as “effectively reduces” and the RVSP entry was “effectively reduces”.
